Results as given in patent US9140688B2, “Sperm staining and sorting methods” (INGURAN, LLC, priority 2011, dated 2015).

Legend:
[1] = test system: deer sperm; assay: Post thaw motility of bulk sorted deer sperm (Example 3); assay type: cell-based; conditions: 0 HR; RED TALP with 16 μL, Y6 with 14 μL Hoechst 33342
Method: Each of deer and elk were collected in the Tris-egg yolk catch fluid described as a catch media in Example 1, and shipped for sorting.
A portion of each of the deer and the elk were stained by the red food dye No. 40 treatment 40% with 16 μL Hoechst 33342 and the yellow food dye No. 6 treatment with 14 μL Hoechst 33342 as described in Example 1.
Samples were each bulk sorted with the same machine and parameters described in Example 1. Both sorted X and sorted Y sperm were collected into a single catch. The sorted samples were then frozen like those described in Example 1.
Frozen thawed samples were then tested for post thaw motilities and post thaw DNA fragmentation. Post thaw motilities were slightly higher in Elk sorted with a yellow quencher, while a more significant difference existed in progressive motility. In Table 10, post thaw DNA fragmentation in Elk can be seen at about double after 48 hours when red food dye No. 40 is compared to yellow food dye No. 6 as a dead quencher.

[2] = test system: membrane compromised bovine sperm stained with Hoechst 33342; assay: Dead quenching: dead gate intensity divided by live gate intensity, flow cytometry of stained bovine sperm; assay type: cell-based; conditions: for Dead Intensity (dead gate intensity divided by live gate intensity): Ex 5
Description: FIG. 4 illustrates an example bivariate plot and univariate histogram of the parameters measured during sex selection by a FACS on a flow cytometer. […] Without a dead quenching dye, both populations of sperm would overlap to a large extent, with unpredictable variations in the dead sperm.
The entire ejaculate of sperm was suspended in first staining buffer, specifically a 7.4 pH TALP described in TABLE 1, to a concentration of 160×10^6 sperm per mL (determined on nucleocounter) and divided into three aliquots of about 20 mL into 50 mL Falcon tubes and pre-warmed for 10 minutes at 34° C. The DNA selective fluorescent dye, Hoechst 33342, was added and samples were held at 34° C. for 60 minutes. 3 different Hoechst 33342 Stain Levels were used=12 μL, 14 μL and 16 μL per 2 mL (effective concentrations of 48 μM, 56 μM, 64 μM).
Preparation of the second buffer including the dead quenching dye—A 2 L bag of TALP, described in TABLE 1, was adjusted to pH 5.60 using HCl and then sterile filtered. […] For each of the four dyes tested (R40—red food dye No. 40, Y5—yellow food dye No. 5, Y6—yellow food dye No. 6 and PR—phenol red), an appropriate number of milligrams of each powder was placed in a Erlenmeyer Flask and then an exact amount of TALP pH 5.60 was added to create a […] concentration of the dye. The result was a working TALP stock for each dye with a 100% (125 μM) relative amount of dye 50% relative (62.5 μM) and 20% relative (25 μM) solutions were made by dilution of 100% by TALP pH 5.60.
After this “bulk” staining for 60 minutes, 1 mL aliquots of stained sperm were combined with 1 mL aliquots of the second buffer including the dead quenching dyes. Samples sat for approximately 30 minutes at room temperature before being analyzed on a MoFlo SX (Beckman Coulter, USA) sperm sorting flow cytometer. Event rates were held as close to 13,000 as possible at the point of data acquisition.
The total number of individual treatments was 42 tubes, each containing 2 mL of stained sample. The alignment of the sorter was established using nuclei and confirmed with live sample from the 50% Red 40 series. Once good alignment was established, each tube was placed on the sorter long enough to establish a stabile dead gate population (about 30 seconds) and then a screenshot was taken and saved as a .jpeg image. This approach of rapidly documenting each sample is used to assure the most consistent alignment between all samples. Realignment of sorter will not cause differences in the intensities of live and dead gate populations but will cause differences in split quality.
FIG. 4 illustrates an example histogram. The ratio of dead gate intensity divided by live gate intensity is created by dividing the distance “A” by the distance “B” shown as a percentage. Lower values mean higher levels of quenching. The ratio of peak height divided by valley height is created by dividing the distance “C” by the distance “D”. A value of 1.00 means “no split” while higher values mean “better splits”. […]

[3] = solvent water; shorter-wavelength local maximum; cited from earlier work
[4] = test system: X- and Y-chromosome bearing bovine sperm stained with Hoechst 33342; assay: Split quality: height of peak divided by height of valley (PV), flow cytometry of stained bovine sperm; assay type: cell-based; conditions: for Height of Peak/Height of Valley: Ex 5
[5] = dye 62.5 μM, Hoechst 12 μL/2 mL
[6] = dye 62.5 μM, Hoechst 14 μL/2 mL
[7] = dye 62.5 μM, Hoechst 16 μL/2 mL
[8] = Ex 6, dye 62.5 μM, resulting pH 6.70, Hoechst 48 μM

## COc1cc(S(=O)(=O)O)c(C)cc1N=Nc1c(O)ccc2cc(S(=O)(=O)O)ccc12 [Red 40, 6-hydroxy-5-[(2-methoxy-5-methyl-4-sulfophenyl)azo]-2-naphthalenesulfonic acid, reference compound]
[1]
  Post Thaw Motility Deer, Motile: 59.8
  Post Thaw Motility Deer, Progressive: 43.0
[2]; dye 25 μM, Average of Hoechst levels
  Dead Intensity (dead gate intensity divided by live gate intensity): 68%
[2]; dye 25 μM, Hoechst 12 μL/2 mL
  Dead Intensity (dead gate intensity divided by live gate intensity): 68%
[2]; dye 25 μM, Hoechst 14 μL/2 mL
  Dead Intensity (dead gate intensity divided by live gate intensity): 72%
[2]; dye 25 μM, Hoechst 16 μL/2 mL
  Dead Intensity (dead gate intensity divided by live gate intensity): 65%
[2]; dye 62.5 μM, Average of Hoechst levels
  Dead Intensity (dead gate intensity divided by live gate intensity): 52%
[2]; [5]
  Dead Intensity (dead gate intensity divided by live gate intensity): 53%
[2]; [6]
  Dead Intensity (dead gate intensity divided by live gate intensity): 53%
[2]; [7]
  Dead Intensity (dead gate intensity divided by live gate intensity): 50%
[2]; dye 125 μM, Average of Hoechst levels
  Dead Intensity (dead gate intensity divided by live gate intensity): 38%
[2]; dye 125 μM, Hoechst 12 μL/2 mL
  Dead Intensity (dead gate intensity divided by live gate intensity): 37%
[2]; dye 125 μM, Hoechst 14 μL/2 mL
  Dead Intensity (dead gate intensity divided by live gate intensity): 41%
[2]; dye 125 μM, Hoechst 16 μL/2 mL
  Dead Intensity (dead gate intensity divided by live gate intensity): 35%
[2]; [8]
  Intensity (dead gate): 53%
[3]
  Expected Absorption Maxima: 505 nm
[4]; dye 25 μM, Average of 12 and 14 μL series
  Height of Peak/Height of Valley: 2.00
[4]; dye 25 μM, Hoechst 12 μL/2 mL
  Height of Peak/Height of Valley: 2.05
[4]; dye 25 μM, Hoechst 14 μL/2 mL
  Height of Peak/Height of Valley: 1.94
[4]; dye 25 μM, Hoechst 16 μL/2 mL
  Height of Peak/Height of Valley: 1.00
[4]; dye 62.5 μM, Average of 12 and 14 μL series
  Height of Peak/Height of Valley: 1.64
[4]; [5]
  Height of Peak/Height of Valley: 1.65
[4]; [6]
  Height of Peak/Height of Valley: 1.62
[4]; [7]
  Height of Peak/Height of Valley: 1.00
[4]; dye 125 μM, Average of 12 and 14 μL series
  Height of Peak/Height of Valley: 1.88
[4]; dye 125 μM, Hoechst 12 μL/2 mL
  Height of Peak/Height of Valley: 1.75
[4]; dye 125 μM, Hoechst 14 μL/2 mL
  Height of Peak/Height of Valley: 2.00
[4]; dye 125 μM, Hoechst 16 μL/2 mL
  Height of Peak/Height of Valley: 1.21
[4]; [8]
  PV: 1.00
[4]; Ex 8, Bull 1, Hoechst 60 μM, R40 20 μM alone
  PV: 1.62
[4]; Ex 8, Bull 2, Hoechst 44 μM, R40 20 μM alone
  PV: 1.54
[4]; Ex 9, Bull 3, Hoechst 60 μM, R40 50 μM, R3 0 μM
  PV: 1.44
